Structures are written as SMILES. “And” between values parts separate entries of the source, which are not always exact repeats. Identical values can stand only once. Like-named read-outs stand apart in the source and are kept apart here. Marks after values point to notes of the source that are not given here.

Data set [1] can be described thus: 1H-NMR stability study of the acetal in D2O at pH* 4.3, 37 °C. To be noted: after 19 h. Type of data set: physicochemical. Here is the method:
The presence of pH-sensitive acetal groups in β-D-glucose-derived dendrimers led us to question whether these compounds would remain stable under the biological conditions of the screening assay. To assess their stability under the experimental conditions, we synthesized 2-(nonyloxy)tetrahydro-2H-pyran acetal following the literature procedure as a control and conducted an NMR stability study. The NMR sample was prepared in D2O at pH* 4.3, where pH* refers to the pH measured in a D2O solution using an H2O-calibrated pH meter. […] The hydrolysis of the 2-(nonyloxy)tetrahydro-2H-pyran acetal yielded nonan-1-ol and 5-hydroxypentanal. The compound stability at pH* 4.3, assessed by ¹H-NMR experiments, is reported in the Supporting Information.

Data set [2] has as its target T1, N-acetylgalactosamine-6-sulfatase (GALNS) (Homo sapiens, UniProt P34059).
T1 construct: Isolated leukocytes were disrupted by sonication; from tissue; host or cells: human leukocytes from healthy donors (sonicated homogenate)
T1 sequence (P34059 27-522): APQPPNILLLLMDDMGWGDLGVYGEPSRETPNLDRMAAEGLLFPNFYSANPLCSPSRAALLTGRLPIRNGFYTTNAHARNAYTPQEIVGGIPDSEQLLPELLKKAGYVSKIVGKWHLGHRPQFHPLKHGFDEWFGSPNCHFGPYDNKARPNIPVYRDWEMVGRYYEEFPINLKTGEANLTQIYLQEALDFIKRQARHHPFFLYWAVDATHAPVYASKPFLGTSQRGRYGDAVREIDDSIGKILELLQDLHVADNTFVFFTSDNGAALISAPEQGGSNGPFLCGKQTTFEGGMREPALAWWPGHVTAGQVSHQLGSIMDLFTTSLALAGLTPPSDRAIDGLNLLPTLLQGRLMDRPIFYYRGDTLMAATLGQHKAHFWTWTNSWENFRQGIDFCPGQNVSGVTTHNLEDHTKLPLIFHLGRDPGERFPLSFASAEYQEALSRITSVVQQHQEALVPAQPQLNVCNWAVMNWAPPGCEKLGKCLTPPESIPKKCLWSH
Set-up: method as in doi:10.1039/C6RA15806D. To be noted: cited from earlier work.

Data set [3] concerns the target T1, N-acetylgalactosamine-6-sulfatase (GALNS). Description: GALNS inhibition in leukocyte homogenate from healthy donors (4-methylumbelliferyl-β-galactoside-6-sulfate substrate, fluorescence). Type of data set: biochemical. To be noted: for inhibition at 1000 µM: pH 4.3, 1 mM inhibitor. Here is the method: A preliminary biological screening of the newly synthesized multivalent compounds at 1 mM inhibitor concentration was performed against GALNS in leukocytes isolated from healthy donors. Enzymatic assays were performed in triplicate by incubating leukocyte homogenate, compound, and substrate (4-methylumbelliferyl-β-galactoside-6-sulfate.Na) in Na-acetate/acetic acid buffer (pH 4.3) at 37 °C for 17 h, followed by the addition of β-galactosidase from Aspergillus oryzae and further incubation to release 4-methylumbelliferone. The fluorescence was measured, and the inhibition percentages were calculated relative to the control. The results are summarized in Table 1, Table 2, Table 3 and Table 4, along with new inhibition data toward GALNS of multivalent inhibitors whose synthesis was reported previously by our group (23, 26, 30, 51, 52–54). For compounds showing poor to negligible inhibitory activity, only the GALNS inhibition percentage at 1 mM was reported.
Enzymatic assays towards human GALNS in leukocytes isolated from healthy donors.
All experiments on biological materials were performed in accordance with the ethical standards of the institutional research committee and with the 1964 Helsinki Declaration and its later amendments. In keeping with ethical guidelines, all blood and cell samples were obtained for storage and analysed only after written informed consent of the patients (and/or their family members) was obtained, using a form approved by the local Ethics Committee (Assigned code: Lysolate “Late -onset Lysosomal Storage Disorders (LSDs) in the differential diagnosis of neurodegenerative diseases: development of new diagnostic procedures and focus on potential pharmacological chaperones (PCs).” Project ID code: 16774_bio, 5 May 2020, Comitato Etico Regionale per la Sperimentazione Clinica della Regione Toscana, Area Vasta Centro, Florence, Italy). Control and patient samples were anonymized and used only for research purposes.
A preliminary biological screening of compounds at 1 mM was performed towards GALNS in leukocytes isolated from healthy donors (controls). Isolated leukocytes were disrupted by sonication, and a micro BCA protein assay kit (Sigma–Aldrich) was used to determine the total protein amount for the enzymatic assay, according to the manufacturer instructions. Enzyme activity was measured by setting the reaction in 0.2 mL tubes and performing the experiments in triplicates as follows. Compound solution (3 µL), 4.29 μg/μL leukocyte homogenate 1:5 (7 μL) and 20 µL of 4-methylumbelliferyl-β-galactoside-6-sulfate.Na substrate solution (6.66mM) in Na-Acetate/acetic acid buffer (0.1 M/0.1 M, pH 4.3) containing 0.1 M NaCl, 0.02% (w/v) NaN3 and 5 mM Pb-acetate were incubated for 17 h at 37 °C. After step one, the tubes were placed on an ice cooler and the reaction was stopped by addition of 5 µL of Na-phosphate buffer (0.9 M, pH 4.3) containing 0.02 % (w/v) of NaN3 and by efficient mixing with vortex. Then, 10 µL of β-galactosidase from Aspergillus oryzae (β-Gal-A-10U) were added to each sample and samples were incubated for 2 h at 37°C. At the end of this period the tubes were placed on an ice cooler and the samples were transferred in a cooled flat –bottomed 96 well plate and the reaction was immediately stopped with 2 00 µL of NaHCO3/Na2CO3 buffer (0.5 M/0.5 M pH 10.7) containing 0.025% (w/v) of Triton X -100. Fluorescence was measured in a SpectraMax M2 microplate reader (Molecular-Devices) using a 365 nm excitation wavelength and a 435 nm emission wavelength. Percentage of GALNS inhibition was given with respect to the control (without compound).
Experiments were performed in triplicate, and the mean ± S. D. was calculated.
Figure S52. GALNS activity in the absence Figure S53. GALNS activity in the absence (Ctrl) and presence of scaffold 12 at a 1 mM (Ctrl) and presence of the new multivalent […]
The corresponding calculated inhibition of the main text) at a 1 mM concentration in […]

Another data set deals with GALNS. To be noted: cited from earlier work.
A further data set deals with rhGALNS. Also on record: method as in PMID 31905715. To be noted: preliminary studies; cited from earlier work.
[4] abbreviates: calculated considering 35 as the monovalent reference compound.
[5] abbreviates: human leukocyte extracts, pH 4.3, 37 °C, 17 h.

With `CCCCCCCCCOC1CCCCO1` (centres unmarked) [2-(nonyloxy)tetrahydro-2H-pyran acetal, 2-(nonyloxy)tetrahydro-2H-pyran], the “stability at pH* 4.3 by 1H-NMR” value in data set [1] is listed as “remained stable”.

Take `O=C(NC(COCc1cn(CCCCCCN2C[C@H](O)[C@H](O)[C@H]2CO)nn1)(COCc1cn(CCCCCCN2C[C@H](O)[C@H](O)[C@H]2CO)nn1)COCc1cn(CCCCCCN2C[C@H](O)[C@H](O)[C@H]2CO)nn1)c1cc(C(=O)NC(COCc2cn(CCCCCCN3C[C@H](O)[C@H](O)[C@H]3CO)nn2)(COCc2cn(CCCCCCN3C[C@H](O)[C@H](O)[C@H]3CO)nn2)COCc2cn(CCCCCCN3C[C@H](O)[C@H](O)[C@H]3CO)nn2)cc(C(=O)NC(COCc2cn(CCCCCCN3C[C@H](O)[C@H](O)[C@H]3CO)nn2)(COCc2cn(CCCCCCN3C[C@H](O)[C@H](O)[C@H]3CO)nn2)COCc2cn(CCCCCCN3C[C@H](O)[C@H](O)[C@H]3CO)nn2)c1` [Compound 2]: in data set [2] (1 mM inhibitor, human leukocyte extracts), the “% Inhibition (1 mM)” value was 85 ^[a] %. Besides, the IC50 – broadly, the concentration that gives 50% inhibition – in data set [2] (human leukocyte extracts) is 85 ± 8 µM. Besides, the rp/n in data set [2] (positive MVE as previously reported) is 6.5 and 6.5–9.2. In addition, in data set [3] (setting [4]), the “rp (relative potency)” value was 59 and the “rp/n (multivalent effect)” value was 6.5 ^[d]. Also, in data set [3] (calculated with respect to the scaffold 38), the “rp (relative potency)” value is listed as 0.8.

For the molecule `OC[C@@H](C[C@H]1N[C@H](CO)[C@@H](O)[C@@H]1O)OC[C@H](O)C[C@H]1N[C@H](CO)[C@@H](O)[C@@H]1O` [Compound 3], the IC50 in the data set on GALNS was 0.3 µM.

Consider `C#CCOCC(COCC#C)(COCC#C)NC(=O)c1cc(C(=O)NC(COCC#C)(COCC#C)COCC#C)cc(C(=O)NC(COCC#C)(COCC#C)COCC#C)c1` [Compound 12], for which, in data set [3] (setting [5]), the inhibition (commonly the drop in the measured response relative to a control, in per cent) at 1000 µM amounted to 25%.

In data set [3] (setting [5]), `NC(COCc1cn(CCCCCCN2C[C@@H](O)[C@H](O)[C@H]2CO)nn1)(COCc1cn(CCCCCCN2C[C@@H](O)[C@H](O)[C@H]2CO)nn1)COCc1cn(CCCCCCN2C[C@@H](O)[C@H](O)[C@H]2CO)nn1` [Compound 26] came in with an inhibition at 1000 µM of under 75%.

With `OC[C@@H]1[C@@H](O)[C@H](O)CN1CCCCCCn1cc(COCC(COCc2cn(CCCCCCN3C[C@@H](O)[C@H](O)[C@H]3CO)nn2)OCc2cn(CCCCCCN3C[C@@H](O)[C@H](O)[C@H]3CO)nn2)nn1` [Compound 28], the inhibition at 1000 µM in data set [3] (setting [5]) was under 75%.

`OC[C@@H]1[C@@H](O)[C@H](O)CN1CCCCCCn1cc(COCC(COCc2cn(CCCCCCN3C[C@@H](O)[C@H](O)[C@H]3CO)nn2)(COCc2cn(CCCCCCN3C[C@@H](O)[C@H](O)[C@H]3CO)nn2)COCc2cn(CCCCCCN3C[C@@H](O)[C@H](O)[C@H]3CO)nn2)nn1` [Compound 30] had an inhibition at 1000 µM in data set [3] (setting [5]) of 35%.

As for `OCC1C(O)C(O)CN1CCCCCCn1cc(COCC(COCc2cn(CCCCCCN3CC(O)C(O)C3CO)nn2)(COCc2cn(CCCCCCN3CC(O)C(O)C3CO)nn2)COCc2cn(CCCCCCN3CC(O)C(O)C3CO)nn2)nn1` (centres unmarked) [Compound 31], 1000 µM produced 73% inhibition in data set [3] (setting [5]).

For the molecule `O=C(CCCCC(=O)NC(COCc1cn(CCCCCCN2CC(O)C(O)C2CO)nn1)(COCc1cn(CCCCCCN2CC(O)C(O)C2CO)nn1)COCc1cn(CCCCCCN2CC(O)C(O)C2CO)nn1)NC(COCc1cn(CCCCCCN2CC(O)C(O)C2CO)nn1)(COCc1cn(CCCCCCN2CC(O)C(O)C2CO)nn1)COCc1cn(CCCCCCN2CC(O)C(O)C2CO)nn1` (centres unmarked) [Compound 33], the “rp/n (multivalent effect)” value in data set [3] (setting [4]) was 2.4.

`O=C(NC(COCc1cn(CCCCCCN2CCCC2)nn1)(COCc1cn(CCCCCCN2CCCC2)nn1)COCc1cn(CCCCCCN2CCCC2)nn1)c1cc(C(=O)NC(COCc2cn(CCCCCCN3CCCC3)nn2)(COCc2cn(CCCCCCN3CCCC3)nn2)COCc2cn(CCCCCCN3CCCC3)nn2)cc(C(=O)NC(COCc2cn(CCCCCCN3CCCC3)nn2)(COCc2cn(CCCCCCN3CCCC3)nn2)COCc2cn(CCCCCCN3CCCC3)nn2)c1` [Compound 38] gave an IC50 in data set [3] (human leukocyte extracts) of 0.07 ± 0.015 mM.

In turn, `CC(=O)OCC1OC(OCCCCCCn2cc(CO)nn2)C(OC(C)=O)C(OC(C)=O)C1OC(C)=O` (centres unmarked) [Compound 48] registered an IC50 in data set [3] (human leukocyte extracts, cell prints mM under a µM head) of over 1 mM. This molecule yielded an inhibition at 1000 µM in data set [3] (setting [5]) of 16%.

For the molecule `O=C(NC(COCc1cn(CCN2C[C@@H](O)[C@H](O)[C@H]2CO)nn1)(COCc1cn(CCN2C[C@@H](O)[C@H](O)[C@H]2CO)nn1)COCc1cn(CCN2C[C@@H](O)[C@H](O)[C@H]2CO)nn1)c1ccc([N+](=O)[O-])cc1` [Compound 51], in data set [3] (setting [5]), the inhibition at 1000 µM worked out at 49%.

The molecule `OCC1C(O)C(O)C2CC(n3cc(COCC(COCc4cn(C5CC6C(O)C(O)C(CO)N6C5)nn4)(COCc4cn(C5CC6C(O)C(O)C(CO)N6C5)nn4)COCc4cn(C5CC6C(O)C(O)C(CO)N6C5)nn4)nn3)CN12` (centres unmarked) [Compound 54] showed an inhibition at 1000 µM in data set [3] (setting [5]) of 9%.

Consider `CCCCCCCCN1C[C@@H](O)C(O)[C@H](O)C1` [Compound 55], for which, in data set [3] (1 mM inhibitor, human leukocyte extracts, pH 4.3, 37 °C, 17 h), the “% Inhibition (1 mM)” value turned out to be 33%.

`CC(C)C[C@H]1C(=O)N2CCC[C@H]2[C@]2(O)O[C@](NC(=O)[C@@H]3C=C4c5cccc6[nH]c(Br)c(c56)C[C@H]4N(C)C3)(C(C)C)C(=O)N12` [bromocriptine]: the “effect on activity and thermostability of rhGALNS” value (“effect … of rhGALNS” for short) in the data set on rhGALNS was “increase the activity and thermostability of rhGALNS”.

Consider `O=C1[C@H](CC[C@H](O)c2ccc(F)cc2)[C@@H](c2ccc(O)cc2)N1c1ccc(F)cc1` [ezetimibe], for which, in the data set with rhGALNS, the “effect … of rhGALNS” value was “increase the activity and thermostability of rhGALNS”.

On to `O=C(Nc1cccc2c(=O)cc(-c3nnn[nH]3)oc12)c1ccc(OCCCCc2ccccc2)cc1` [pranlukast], for which the “effect … of rhGALNS” value in the data set with rhGALNS was “increase the activity and thermostability of rhGALNS”.
